Reference: PubChem BioAssay AID651717 (Broad Institute, 2012)

tested on: mESC Bmi1-luciferase reporter, firefly/renilla ratio, 24 h; assay: compounds raising Bmi1 reporter signal – mouse embryonic stem cells, luciferase, cherry-pick, esBAF inhibitor project, dose response (AID 651717);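 also: luciferase knocked into Bmi1 locus with EF-1a renilla as cell number control; rising ratio signals esBAF inhibition which derepresses Bmi1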

First: Cn1cccc1-c1nc2ccc(NC(=O)c3cccs3)cc2[nH]1
Second: CC(=O)Nc1ccc(-c2nc3c(C)cccc3[nH]2)cc1
The AC40 of the first is 9.4-fold higher: 11.7 µM for the first, 1.25 µM for the second.

Going from CCC(=O)Nc1nc(-c2ccc3c(c2)CC(C)N3S(C)(=O)=O)cs1 (configuration not stated) to CCOC(=O)N1CCN(C(=O)CSCC(=O)Nc2nc(-c3ccc4c(c3)OCO4)cs2)CC1, the AC40 rises from 7.5 µM to 12.1 µM (1.6-fold).

First: COC(=O)c1ccc(NC(=O)c2cc3sccc3n2C)cc1
Second: Cc1ccc(C(=O)NCC(=O)Nc2ccc3c(c2)CCC3)cc1
The AC40 of the first is 4.7-fold higher: 6.75 µM for the first, 1.44 µM for the second.

Compared with Cc1csc(NC(=O)Cc2ccc(F)cc2)n1, COc1ccc(NC(=O)c2csc3c2CCCC3)cc1 is 17-fold lower in AC40: 7.58 µM for the first, 0.459 µM for the second.

Oc1ccc(-c2cccc(-c3ccc(O)cc3)c2)cc1 and Oc1ccc(-c2nnc(SCc3ccccc3)o2)cc1 are within 1.5-fold of each other in AC40: 6.78 µM for the first, 7.97 µM for the second.

First: COc1ccc(Cl)cc1C(=O)NNC(=O)c1cccs1
Second: COc1ccc(C(=O)CC(=O)c2ccccc2O)cc1OC
The AC40 of the first is 3.2-fold lower: 4.75 µM for the first, 15.1 µM for the second.

COc1cccc(NC(=O)c2ccc3c(c2)CCN3S(C)(=O)=O)c1 and COc1ccc(C(=O)N2CCc3ccccc32)cc1 are within 1.5-fold of each other in AC40: 7.43 µM for the first, 5.97 µM for the second.

Compared with Cc1noc(C)c1-c1csc(N2CCC(C(N)=O)CC2)n1, Cc1cc2oc(=O)cc(CN3CCC(C)CC3)c2c(C)c1Cl is 10-fold higher in AC40: 0.444 µM for the first, 4.55 µM for the second.

O=C(COC(=O)[C@H](Cc1c[nH]c2ccccc12)NC(=O)c1ccc(Cl)cc1)Nc1ccc2c(c1)OCO2 and CCCN1C(=O)c2ccc(C(=O)Nc3ccc4c(c3)OCO4)cc2C1=O are within 1.5-fold of each other in AC40: 10.5 µM for the first, 9.64 µM for the second.

Compared with Cc1ccc(NC(=O)c2cccc3ccccc23)cc1, CS(=O)(=O)c1ccccc1C(=O)Nc1ccc(-c2nc3ccccc3o2)cc1 is 3.2-fold lower in AC40: 13.9 µM for the first, 4.29 µM for the second.

First: O=C(NCCc1ccc(F)cc1)c1ccc2c(=O)n3c(nc2c1)CCC3
Second: O=c1sc(N2CCN(c3ccc(F)cc3)CC2)nc2ccsc12
The AC40 of the first is 3.3-fold higher: 5.89 µM for the first, 1.76 µM for the second.

N#CCc1ccc(OC(=O)c2cccnc2Cl)cc1 and C#CCn1cccc(C(=O)Nc2ccc(OC)cc2)c1=O are within 1.5-fold of each other in AC40: 15.7 µM for the first, 10.7 µM for the second.

First: CN(C)c1ccc(CN(C(=O)c2cc3ccccc3oc2=O)C2CCS(=O)(=O)C2)cc1 (configuration not stated)
Second: CNC(=O)c1ccc(-c2cc3onc(-c4ccccc4)c3c(=O)n2C)cc1
The AC40 of the first is 3.1-fold higher: 3.62 µM for the first, 1.16 µM for the second.

First: N/C(=N\OC(=O)Cc1cccs1)c1ccc(Cl)cc1
Second: Clc1ccc(OCc2nc(-c3ccncc3)no2)cc1
The AC40 of the first is 1.7-fold higher: 18.1 µM for the first, 10.8 µM for the second.

Compared with O=C1NC(=Nc2ccccc2)S/C1=C\c1cccn1-c1ccccc1, O=C1c2ccccc2CN1c1ccccc1 is 1.6-fold higher in AC40: 2.43 µM for the first, 3.89 µM for the second.

First: CN(C)c1ncnc2c1ncn2-c1ccccc1
Second: NC(=O)c1ccc(OCc2ccccc2)nc1
The AC40 of the first is 1.7-fold higher: 9.34 µM for the first, 5.4 µM for the second.

Going from COc1ccc(/C=C2/SC(=O)N(CCNC(=O)CC(NC(C)=O)c3ccccc3)C2=O)cc1 (configuration not stated) to COc1cccc(OCc2cc(C(=O)N(C)Cc3nc4ccccc4[nH]3)no2)c1, the AC40 falls from 10.2 µM to 2.78 µM (3.7-fold).

First: COc1ccc(OCc2cc(C(=O)N3C[C@H]4CC[C@H]3C4)no2)c(Cl)c1
Second: COc1cccc(-c2cc(C(=O)NC3CCCCC3)no2)c1
The AC40 of the first is 5.4-fold higher: 9.24 µM for the first, 1.71 µM for the second.

First: O=c1[nH]cnc2nc(-c3ccc(N(CCCl)CCCl)cc3)[nH]c12
Second: CCC(=O)n1nc(-c2ccc(Cl)cc2)nc1SC
The AC40 of the first is 3.8-fold lower: 0.965 µM for the first, 3.71 µM for the second.

Compared with O=C(c1csc(Nc2ccccc2Cl)n1)N1CCCC1, O=C(Nc1ccccc1)c1cc(C2CCCCN2S(=O)(=O)c2cccs2)on1 (configuration not stated) is 8.4-fold higher in AC40: 1.07 µM for the first, 9.04 µM for the second.

Compared with O=C(Nc1cccc(O)c1)c1ccc(Br)cc1, O=C(CC1CCCC1)Nc1ccc(Br)cc1 is 6.5-fold higher in AC40: 2.45 µM for the first, 16 µM for the second.

Going from Cc1[nH]c2ccccc2c(=O)c1CN(C)Cc1ccccc1 to O=C(NOCc1ccccc1)OCc1ccccc1, the AC40 falls from 10.4 µM to 4.39 µM (2.4-fold).

First: Cn1ccc2c(-c3ccc(C(=O)O)cc3)cc3c(c21)C1CCC3C1 (configuration not stated)
Second: COc1cccc(NC(=O)c2ccnc(N3CCC(C(=O)NCc4ccccc4OC)CC3)c2)c1
The AC40 of the first is 2-fold lower: 4.09 µM for the first, 8.36 µM for the second.

Compared with O/N=C\c1cnc(N2CCN(c3ccccc3)CC2)s1, Cc1cc(N2CCOCC2)nc2ccc(NC(=O)CCC(=O)N3CCN(c4ccccc4)CC3)cc12 is 4.5-fold higher in AC40: 2.47 µM for the first, 11 µM for the second.

First: Cc1ccc(SCCN2CCC(C)CCC2=O)cc1 (configuration not stated)
Second: Cc1ccc(OCn2c(=O)sc3ccccc32)cc1
The AC40 of the first is 2.2-fold lower: 2.74 µM for the first, 6.12 µM for the second.

First: CC(C)(O)c1cc2ccc(C#Cc3ccsc3)cc2c(=O)o1
Second: COC(=O)c1ccc2nc(-c3cccc(Cl)c3)c(Cc3ccsc3)n2c1
The AC40 of the first is 2.3-fold lower: 3.42 µM for the first, 7.98 µM for the second.

Going from O=S(=O)(c1ccc2ccccc2c1)N1CCN(S(=O)(=O)c2c(F)cccc2F)CC1 to O=C(Nc1ccccc1Cl)c1cc(=O)c2ccccc2o1, the AC40 falls from 1.26 µM to 0.468 µM (2.7-fold).

First: Brc1ccccc1-c1nnc(-c2cccnc2)o1
Second: CN(Cc1cccnc1)C(=O)c1cc(COc2ccc3c(c2)CCCC3)on1
The AC40 of the first is 6.8-fold higher: 6.08 µM for the first, 0.9 µM for the second.

First: O=C(NC1CCCCCCC1)c1c(O)c2ccccc2[nH]c1=O
Second: CCOc1ccc(N=C(/C(C(=O)C(=O)N2CCOCC2)=C(\O)c2ccccc2)c2ccccc2)cc1
The AC40 of the first is 5.1-fold lower: 2.19 µM for the first, 11.2 µM for the second.

First: COCOCCn1cc(CN2CCS(=O)(=O)N(Cc3ccc(-c4ccc(Cl)nc4)cc3)C(CC(C)C)C2=O)nn1 (configuration not stated)
Second: COc1cc(C=O)c(Br)cc1OCc1ccc(C)cc1
The AC40 of the first is 7.3-fold higher: 34.2 µM for the first, 4.67 µM for the second.

COc1cccc2sc(NC(=O)c3ccc(Br)s3)nc12 and Cc1ccc(Nc2nc(Cl)nc(NC(C)(C)C)n2)cc1 are within 1.5-fold of each other in AC40: 1.85 µM for the first, 1.47 µM for the second.
